The values below come from patent US10829473B2, “Modulators of the cystic fibrosis transmembrane conductance regulator protein and methods of use” (AbbVie Overseas S.Á.R.L., priority 2017, dated 2020).

Read-outs that look alike come from different tables or passages of the source.

This experiment deals with T1, F508delCFTR (Homo sapiens, UniProt P13569, DEL508-508).
T1 construct: expressed in transfected cells; host or cells: CFBE41o- human lung derived epithelial cells (CFBE41o-F508delCFTR-HRP), doxycycline-inducible
Briefly: Cell Surface Expression-Horse Radish Peroxidase (CSE-HRP) Assay.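 For EC50 (with co-corrector): co-corrector chromenyl benzoic acid corrector at 2 or 3 µM.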 As to conditions: for Maximum % activity (with co-corrector) / Emax: maximum at any tested concentration; for Emax: read-out: Maximum % activity (without co-corrector). The experiment is classed as cell-based. As to the method:
A cellular assay for measuring the F508delCFTR cell surface expression after correction with test compounds either without or with a co-corrector (2 μM of 3-[(2R,4R)-4-({[1-(2,2-difluoro-1,3-benzodioxol-5-yl)cyclopropyl]carbonyl}amino)-7-methoxy-3,4-dihydro-2H-chromen-2-yl]benzoic acid), was developed in human lung derived epithelial cell line (CFBE4lo−) (Veit G et al, (2012) Mol Biol Cell. 23(21): 4188-4202). The development was achieved by expressing the F508delCFTR mutation along with a horseradish peroxidase (HRP) in the fourth exofacial loop, and then measuring the HRP activity using luminescence readout from these cells, CFBE410-F508delCFTR-HRP, that were incubated overnight with the test corrector compounds, either without or with the co-corrector. For this primary assay, the CFBE410-F508delCFTR-HRP cells were plated in 384-well plates (Greiner Bio-one; Cat 781080) at 4,000 cells/well along with 0.5 μg/mL doxycycline to induce the F508delCFTR-HRP expression and further incubated at 37° C., 5% CO2 for 68-72 hours. The test compounds were then added either without or with a co-corrector at the required concentrations and further incubated for 18-24 hours at 33° C. The highest concentration tested was 20 μM or 30 μM (GI-1 to GIII-36) with an 8-point concentration response curve using a 3-fold dilution in both the test compound without or with the co-corrector. Three replicate plates were run to determine one EC50. All plates contained negative controls (dimethyl sulfoxide, DMSO) and positive control (2 μM or 3 μM (GI-1 to GIII-36) of 3-[(2R,4R)-4-({[1-(2,2-difluoro-1,3-benzodioxol-5-yl)cyclopropyl]carbonyl}amino)-7-methoxy-3,4-dihydro-2H-chromen-2-yl]benzoic acid) as well as on-plate concentration response of the positive control. Post incubation, the plates were washed 5× times with Dulbecco's phosphate buffered saline (DPBS), followed by the addition of the HRP substrate, luminol (50 4), and measuring the HRP activity using luminescence readout on EnVision® Multilabel Plate Reader (Perkin Elmer; product number 2104-0010). The raw counts from the experiment were analyzed using Accelrys® Assay Explorer v3.3.
Z′ greater than 0.5 was used as passing quality control criteria for the plates.
The Z′ is defined as: 1−[3*SDPositve Control+3*SDNegative Control/Absolute(MeanPositive Control−MeanNegative Control)] wherein “SD” is standard deviation.
The % activity measured at each of the 8 test concentrations of the test compound added either without or with a co-corrector (2 μM or 3 μM (GI-1 to GIII-36) of 3-[(2R,4R)-4-({[1-(2,2-difluoro-1,3-benzodioxol-5-yl)cyclopropyl]carbonyl}amino)-7-methoxy-3,4-dihydro-2H-chromen-2-yl]benzoic acid) was normalized to the on-plate positive control using the following formulae: % activity (Test compound without co-corrector)=[(test compound without co-corrector response DMSO response)/(positive control response DMSO response)]*100 % activity (Test compound with co-corrector)=[(test compound with co-corrector response DMSO response)/(positive control response DMSO response)]*100
The maximum % activity achieved for the test compound either without or with a co-corrector at any tested concentration is presented in Table 6 along with the respective EC50's calculated using the following general sigmoidal curve with variable Hill slope equation (described as Model 42 in the Accelrys® Assay Explorer v3.3 software): y=(a−d)/(1+(x/c)b)+d
General sigmoidal curve with concentration, response, top, bottom, EC50 and Hill slope. This model describes a sigmoidal curve with an adjustable baseline, a. The equation can be used to fit curves where response is either increasing or decreasing with respect to the independent variable, “x”.
“x” is a concentration of drug under test.
“a” is the maximum response, and “d” is the minimum response
“c” is the inflection point (EGO for the curve. That is, “y” is halfway between the lower and upper asymptotes when x=c.
“b” is the slope-factor or Hill coefficient. […]

Where [1] appears, read: test compound with co-corrector.
The mark [2] stands for this setting: test compound with co-corrector, read-out: EC50 (with co-corrector).
Setting [3] is: test compound without co-corrector.
Setting [4] is: test compound without co-corrector, read-out: EC50 (without co-corrector).

As a reminder, the EC50 is the midpoint of the concentration-response curve.

T1 sequence (P13569 with tags, fused parts or gaps DEL508-508): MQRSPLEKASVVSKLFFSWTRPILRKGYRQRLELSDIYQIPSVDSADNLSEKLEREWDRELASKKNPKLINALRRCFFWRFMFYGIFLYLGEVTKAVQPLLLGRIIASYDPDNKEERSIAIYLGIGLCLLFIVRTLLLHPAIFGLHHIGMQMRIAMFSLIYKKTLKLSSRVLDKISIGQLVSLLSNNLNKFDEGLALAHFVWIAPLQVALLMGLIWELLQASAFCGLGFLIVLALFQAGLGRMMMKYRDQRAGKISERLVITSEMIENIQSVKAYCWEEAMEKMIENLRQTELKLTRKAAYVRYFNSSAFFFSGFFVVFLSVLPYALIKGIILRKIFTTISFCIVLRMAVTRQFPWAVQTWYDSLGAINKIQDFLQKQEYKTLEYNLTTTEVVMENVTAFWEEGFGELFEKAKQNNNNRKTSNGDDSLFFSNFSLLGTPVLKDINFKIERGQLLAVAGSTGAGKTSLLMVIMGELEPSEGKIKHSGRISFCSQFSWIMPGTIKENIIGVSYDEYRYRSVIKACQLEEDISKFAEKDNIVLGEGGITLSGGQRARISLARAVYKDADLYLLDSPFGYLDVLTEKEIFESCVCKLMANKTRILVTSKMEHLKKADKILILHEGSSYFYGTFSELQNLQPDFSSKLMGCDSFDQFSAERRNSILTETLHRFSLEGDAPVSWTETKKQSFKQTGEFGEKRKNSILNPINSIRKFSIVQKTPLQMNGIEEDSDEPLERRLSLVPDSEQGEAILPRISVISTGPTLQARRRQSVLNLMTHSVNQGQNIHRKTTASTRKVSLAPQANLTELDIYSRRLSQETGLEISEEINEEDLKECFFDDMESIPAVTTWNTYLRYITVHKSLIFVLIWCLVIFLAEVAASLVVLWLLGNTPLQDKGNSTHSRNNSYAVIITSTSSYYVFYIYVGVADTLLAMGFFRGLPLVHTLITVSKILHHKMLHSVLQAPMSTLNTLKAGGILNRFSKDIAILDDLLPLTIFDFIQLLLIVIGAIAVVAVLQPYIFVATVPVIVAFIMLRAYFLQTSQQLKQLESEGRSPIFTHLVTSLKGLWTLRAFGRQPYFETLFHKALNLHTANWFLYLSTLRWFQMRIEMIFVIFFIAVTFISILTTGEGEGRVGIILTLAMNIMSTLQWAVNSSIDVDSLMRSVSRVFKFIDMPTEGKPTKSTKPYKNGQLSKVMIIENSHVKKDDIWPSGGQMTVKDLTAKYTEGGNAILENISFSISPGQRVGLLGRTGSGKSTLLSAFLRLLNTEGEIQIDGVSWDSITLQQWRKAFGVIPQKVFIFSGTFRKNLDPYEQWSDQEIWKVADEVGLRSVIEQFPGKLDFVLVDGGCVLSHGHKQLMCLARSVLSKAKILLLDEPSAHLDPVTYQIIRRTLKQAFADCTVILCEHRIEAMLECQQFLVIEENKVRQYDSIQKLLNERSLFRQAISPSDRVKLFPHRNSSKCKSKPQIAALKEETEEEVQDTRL

Consider `O=C(NS(=O)(=O)c1cccc2ncccc12)C1(c2cc(C3CC3)cnc2N2CCCC2)CC1` [Example GI-32, 1-[5-cyclopropyl-2-(pyrrolidin-1-yl)pyridin-3-yl]-N-(quinoline-5-sulfonyl)cyclopropane-1-carboxamide], for which, under setting [1], the “Maximum % activity (with co-corrector)” value is listed as “+++ (≥350)”. Moreover, the EC50 is less than 3 µM under setting [2] and 3 to 10 µM under setting [4]. The Emax under setting [3] was more than 150%.
For `Cc1ccc2c(S(=O)(=O)NC(=O)C3(c4cc(C5CC5)cnc4N4CCCC4)CC3)cccc2n1` [Example GI-33, 1-[5-cyclopropyl-2-(pyrrolidin-1-yl)pyridin-3-yl]-N-(2-methylquinoline-5-sulfonyl)cyclopropane-1-carboxamide], in that order: “+++ (≥350)”, less than 3 µM, 3 to 10 µM and more than 150%.
For `O=C(NS(=O)(=O)c1cccc2[nH]ccc12)C1(c2cc(C3CC3)cnc2N2CCCC2)CC1` [Example GI-34, 1-[5-cyclopropyl-2-(pyrrolidin-1-yl)pyridin-3-yl]-N-(1H-indole-4-sulfonyl)cyclopropane-1-carboxamide], in that order: “+++ (≥350)”, less than 3 µM, 3 to 10 µM and more than 150%.
For the molecule `O=C(NS(=O)(=O)c1cccc2ncccc12)C1(c2cc(Cl)cnc2N2CCCC2)CC1` [Example GI-35, 1-[5-chloro-2-(pyrrolidin-1-yl)pyridin-3-yl]-N-(quinoline-5-sulfonyl)cyclopropane-1-carboxamide], under setting [1], the “Maximum % activity (with co-corrector)” value was “+++ (≥350)”. For the same molecule, the EC50 by setting is: under setting [2], less than 3 µM; under setting [4], 3 to 10 µM. Moreover, the Emax under setting [3] was more than 150%.
For `Cc1ccc2c(S(=O)(=O)NC(=O)C3(c4cc(Cl)cnc4N4CCCC4)CC3)cccc2n1` [Example GI-36, 1-[5-chloro-2-(pyrrolidin-1-yl)pyridin-3-yl]-N-(2-methylquinoline-5-sulfonyl)cyclopropane-1-carboxamide], in that order: “+++ (≥350)”, less than 3 µM, 3 to 10 µM and more than 150%.
On to `CCc1cnc(N2CCCC2)c(C2(C(=O)NS(=O)(=O)c3cccc4[nH]ccc34)CC2)c1` [Example GI-37, 1-[5-ethyl-2-(pyrrolidin-1-yl)pyridin-3-yl]-N-(1H-indole-4-sulfonyl)cyclopropane-1-carboxamide], for which the “Maximum % activity (with co-corrector)” value under setting [1] is “+++ (≥350)”. For the same molecule, the EC50 was less than 3 µM under setting [2] and 3 to 10 µM under setting [4]. Also, the Emax under setting [3] was more than 150%.
For `CC(C)Oc1ccc(C2CCC2)nc1C1(C(=O)NS(=O)(=O)c2cccc3[nH]ccc23)CC1` [Example GI-38, 1-{6-cyclobutyl-3-[(propan-2-yl)oxy]pyridin-2-yl}-N-(1H-indole-4-sulfonyl)cyclopropane-1-carboxamide], in that order: “+++ (≥350)”, less than 3 µM, less than 3 µM and more than 150%.
For `CC(C)Oc1ccc(C2CCC2)nc1C1(C(=O)NS(=O)(=O)c2cccc3ncccc23)CC1` [Example GI-39, 1-{6-cyclobutyl-3-[(propan-2-yl)oxy]pyridin-2-yl}-N-(quinoline-5-sulfonyl)cyclopropane-1-carboxamide], in that order: “+++ (≥350)”, less than 3 µM, less than 3 µM and more than 150%.
Take `CCc1cnc(OC(C)C)c(C2(C(=O)NS(=O)(=O)c3cccc4nc(C)ccc34)CC2)c1` [Example GI-40, 1-{5-ethyl-2-[(propan-2-yl)oxy]pyridin-3-yl}-N-(2-methylquinoline-5-sulfonyl)cyclopropane-1-carboxamide]: the “Maximum % activity (with co-corrector)” value under setting [1] is recorded as “+++ (≥350)”. The EC50 by setting is: under setting [2], less than 3 µM; under setting [4], less than 3 µM. Moreover, the Emax under setting [3] was more than 150%.
`CCc1cnc(OC(C)C)c(C2(C(=O)NS(=O)(=O)c3cccc4[nH]ccc34)CC2)c1` [Example GI-41, 1-{5-ethyl-2-[(propan-2-yl)oxy]pyridin-3-yl}-N-(1H-indole-4-sulfonyl)cyclopropane-1-carboxamide]: under setting [1], the “Maximum % activity (with co-corrector)” value is listed as “+++ (≥350)”. For the same molecule, the EC50 by setting is: under setting [2], less than 3 µM; under setting [4], less than 3 µM. Besides, under setting [3], the Emax is more than 150%.
Consider `Cc1cnc(OCC(C)C)c(C2(C(=O)NS(=O)(=O)c3cccc4ncccc34)CC2)c1` [Example GI-42, 1-[5-methyl-2-(2-methylpropoxy)pyridin-3-yl]-N-(quinoline-5-sulfonyl)cyclopropane-1-carboxamide], for which the “Maximum % activity (with co-corrector)” value under setting [1] is recorded as “+++ (≥350)”. The 50% effective concentration (EC50) is, setting by setting: under setting [2], less than 3 µM; under setting [4], less than 3 µM. In addition, the Emax under setting [3] is more than 150%.
In the case of `Cc1cnc(OCC(C)C)c(C2(C(=O)NS(=O)(=O)c3cccc4nc(C)ccc34)CC2)c1` [Example GI-43, 1-[5-methyl-2-(2-methylpropoxy)pyridin-3-yl]-N-(2-methylquinoline-5-sulfonyl)cyclopropane-1-carboxamide], the “Maximum % activity (with co-corrector)” value under setting [1] is “+++ (≥350)”. Also, the EC50 under setting [2] is less than 3 µM and the EC50 under setting [4] is less than 3 µM. Also, the Emax under setting [3] was more than 150%.
`Cc1cnc(OCC(C)C)c(C2(C(=O)NS(=O)(=O)c3cccc4[nH]ccc34)CC2)c1` [Example GI-44, N-(1H-indole-4-sulfonyl)-1-[5-methyl-2-(2-methylpropoxy)pyridin-3-yl]cyclopropane-1-carboxamide]: the “Maximum % activity (with co-corrector)” value under setting [1] is reported as “+++ (≥350)”. Also, the EC50 runs as follows: under setting [2], less than 3 µM; under setting [4], less than 3 µM. Also, the Emax under setting [3] was more than 150%.
`CCc1cnc(OCC(C)C)c(C2(C(=O)NS(=O)(=O)c3cccc4ncccc34)CC2)c1` [Example GI-45, 1-[5-ethyl-2-(2-methylpropoxy)pyridin-3-yl]-N-(quinoline-5-sulfonyl)cyclopropane-1-carboxamide]: the “Maximum % activity (with co-corrector)” value under setting [1] was “+++ (≥350)”. In addition, the EC50 by setting is: under setting [2], less than 3 µM; under setting [4], less than 3 µM. For the same molecule, the Emax under setting [3] was more than 150%.
With `CCc1cnc(OCC(C)C)c(C2(C(=O)NS(=O)(=O)c3cccc4nc(C)ccc34)CC2)c1` [Example GI-46, 1-[5-ethyl-2-(2-methylpropoxy)pyridin-3-yl]-N-(2-methylquinoline-5-sulfonyl)cyclopropane-1-carboxamide], under setting [1], the “Maximum % activity (with co-corrector)” value was “+++ (≥350)”. The EC50 reads like this: under setting [2], less than 3 µM; under setting [4], less than 3 µM. In addition, under setting [3], the Emax was more than 150%.
In the case of `CCc1cnc(OCC(C)C)c(C2(C(=O)NS(=O)(=O)c3cccc4[nH]ccc34)CC2)c1` [Example GI-47, 1-[5-ethyl-2-(2-methylpropoxy)pyridin-3-yl]-N-(1H-indole-4-sulfonyl)cyclopropane-1-carboxamide], under setting [1], the “Maximum % activity (with co-corrector)” value was “+++ (≥350)”. Besides, the EC50 under setting [2] was less than 3 µM and the EC50 under setting [4] is less than 3 µM. Besides, the Emax under setting [3] was more than 150%.
